From article PMC12951562, “SH2scan: Mapping SH2 Domain-Ligand Binding Selectivity for Inhibitors and Degraders” (Journal of Medicinal Chemistry, 2026)

Experiments:
Test in all cases: biochemical
Assay type in all cases: binding
[1] = molecular target: T1, SRC (Homo sapiens, UniProt P12931); settings: read-out: percent of DMSO vehicle control
T1 construct: made in house; host or cells: HEK293 (transient transfection), unpurified extract

[2] = molecular target: T2, SOCS7 (Homo sapiens, UniProt O14512); settings: read-out: percent of DMSO vehicle control
T2 construct: made in house; host or cells: HEK293 (transient transfection), unpurified extract
T2 sequence (O14512 1-581): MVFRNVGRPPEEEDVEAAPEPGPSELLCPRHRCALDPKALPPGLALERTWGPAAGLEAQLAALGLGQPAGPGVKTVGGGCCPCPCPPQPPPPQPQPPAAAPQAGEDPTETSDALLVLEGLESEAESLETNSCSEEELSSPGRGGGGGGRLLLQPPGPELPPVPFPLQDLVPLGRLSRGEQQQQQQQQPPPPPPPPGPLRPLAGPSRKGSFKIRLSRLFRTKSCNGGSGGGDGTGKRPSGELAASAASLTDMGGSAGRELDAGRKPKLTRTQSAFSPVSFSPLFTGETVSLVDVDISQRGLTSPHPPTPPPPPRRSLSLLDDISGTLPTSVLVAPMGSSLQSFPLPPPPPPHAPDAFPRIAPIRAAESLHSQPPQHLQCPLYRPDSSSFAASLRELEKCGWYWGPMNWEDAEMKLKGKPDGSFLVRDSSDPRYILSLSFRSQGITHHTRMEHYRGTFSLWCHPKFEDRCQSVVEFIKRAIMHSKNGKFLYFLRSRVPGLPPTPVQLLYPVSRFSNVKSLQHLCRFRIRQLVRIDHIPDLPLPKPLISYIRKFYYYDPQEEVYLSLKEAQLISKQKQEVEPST

[3] = molecular target: T3, RASA1(SH2dom.C-term.) (Homo sapiens, UniProt P20936); settings: read-out: percent of DMSO vehicle control
T3 construct: SH2dom.C-term. denotes SH2 domain closest to C-terminus of protein; made in house; host or cells: HEK293 (transient transfection, unpurified extract)
T3 sequence (P20936 351-441 limits assumed): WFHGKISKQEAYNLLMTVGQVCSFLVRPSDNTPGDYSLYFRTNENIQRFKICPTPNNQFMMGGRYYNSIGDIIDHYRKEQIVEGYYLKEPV

[4] = molecular target: T4, STAT2 (Homo sapiens, UniProt P52630)
T4 construct: made in house; host or cells: HEK293 (transient transfection), unpurified extract
T4 sequence (P52630 whole entry): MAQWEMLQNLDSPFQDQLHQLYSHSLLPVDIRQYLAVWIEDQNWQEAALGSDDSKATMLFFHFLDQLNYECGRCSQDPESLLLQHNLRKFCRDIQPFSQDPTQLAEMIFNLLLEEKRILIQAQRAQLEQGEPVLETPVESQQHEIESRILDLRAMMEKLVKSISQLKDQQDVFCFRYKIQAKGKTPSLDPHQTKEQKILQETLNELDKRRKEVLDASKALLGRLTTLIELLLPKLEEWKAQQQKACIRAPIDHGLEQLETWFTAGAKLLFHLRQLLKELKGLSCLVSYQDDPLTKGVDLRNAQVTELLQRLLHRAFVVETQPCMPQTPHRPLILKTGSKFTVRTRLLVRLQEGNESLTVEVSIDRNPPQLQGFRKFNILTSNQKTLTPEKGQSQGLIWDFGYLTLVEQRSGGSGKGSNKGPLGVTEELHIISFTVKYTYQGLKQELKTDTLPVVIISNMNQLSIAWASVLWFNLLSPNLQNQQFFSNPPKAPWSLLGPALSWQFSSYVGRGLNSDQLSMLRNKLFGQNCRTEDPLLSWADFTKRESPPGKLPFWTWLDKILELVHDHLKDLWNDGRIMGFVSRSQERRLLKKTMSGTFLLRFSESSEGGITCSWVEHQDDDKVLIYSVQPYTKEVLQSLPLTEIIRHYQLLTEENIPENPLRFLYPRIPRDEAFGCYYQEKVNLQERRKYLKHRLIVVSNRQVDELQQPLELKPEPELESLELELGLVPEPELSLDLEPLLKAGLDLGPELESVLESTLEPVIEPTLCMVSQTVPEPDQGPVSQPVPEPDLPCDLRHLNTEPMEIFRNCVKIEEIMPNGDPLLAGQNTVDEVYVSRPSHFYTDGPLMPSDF

[5] = molecular target: T5, CSK (Homo sapiens, UniProt P41240); settings: primary screen, 10 μM
T5 construct: the DNA-tagged SH2 domain concentrations used in this study were <0.1 nM; made in house; host or cells: HEK293 (transient transfection; unpurified extract)
T5 sequence (P41240 82-171 limits assumed): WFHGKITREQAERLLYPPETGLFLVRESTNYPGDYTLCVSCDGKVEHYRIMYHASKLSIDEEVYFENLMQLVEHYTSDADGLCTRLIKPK

[6] = molecular target: T6, NCK2 (Homo sapiens, UniProt O43639); settings: read-out: percent of DMSO vehicle control
T6 construct: the DNA-tagged SH2 domain concentrations used in this study were <0.1 nM; made in house; host or cells: HEK293 (transient transfection, unpurified extract)
T6 sequence (O43639 285-380 limits assumed): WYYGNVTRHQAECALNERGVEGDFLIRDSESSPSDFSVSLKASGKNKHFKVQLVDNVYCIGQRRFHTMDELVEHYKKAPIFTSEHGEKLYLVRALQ

[7] = molecular target: T7, SHC1 (Homo sapiens, UniProt P29353); settings: read-out: percent of DMSO vehicle control
T7 construct: made in house; host or cells: HEK293 (transient transfection), unpurified extract
T7 sequence (P29353 1-583): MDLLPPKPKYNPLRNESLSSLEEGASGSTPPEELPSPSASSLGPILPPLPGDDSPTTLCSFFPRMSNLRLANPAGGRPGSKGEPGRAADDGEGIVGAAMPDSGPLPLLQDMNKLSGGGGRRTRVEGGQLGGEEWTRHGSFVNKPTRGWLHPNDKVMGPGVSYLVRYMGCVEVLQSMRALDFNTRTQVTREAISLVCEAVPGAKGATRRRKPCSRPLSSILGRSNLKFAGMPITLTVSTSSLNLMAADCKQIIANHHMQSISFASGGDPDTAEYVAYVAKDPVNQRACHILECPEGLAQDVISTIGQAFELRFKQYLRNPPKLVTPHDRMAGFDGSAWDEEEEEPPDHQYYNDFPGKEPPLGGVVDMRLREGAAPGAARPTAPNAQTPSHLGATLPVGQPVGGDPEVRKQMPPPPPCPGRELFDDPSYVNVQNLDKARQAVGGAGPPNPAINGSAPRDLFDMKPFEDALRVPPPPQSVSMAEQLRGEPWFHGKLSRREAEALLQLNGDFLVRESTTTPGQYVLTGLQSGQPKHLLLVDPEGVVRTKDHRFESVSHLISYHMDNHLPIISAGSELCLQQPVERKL

[8] = molecular target: T8, GRB7 (Homo sapiens, UniProt Q14451); settings: read-out: percent of DMSO vehicle control
T8 construct: the DNA-tagged SH2 domain concentrations used in this study were <0.1 nM; made in house; host or cells: HEK293 (transient transfection; unpurified extract)
T8 sequence (Q14451 431-527 limits assumed): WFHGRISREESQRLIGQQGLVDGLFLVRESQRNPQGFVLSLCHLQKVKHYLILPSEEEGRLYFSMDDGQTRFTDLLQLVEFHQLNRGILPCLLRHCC

[9] = molecular target: T9, PLCG1(SH2dom.N-term.) (Homo sapiens, UniProt P19174); settings: read-out: percent of DMSO vehicle control
T9 construct: SH2dom.N-term. denotes SH2 domain closest to N-terminus of protein; made in house; host or cells: HEK293 (transient transfection, unpurified extract)
T9 sequence (P19174 550-657 limits assumed): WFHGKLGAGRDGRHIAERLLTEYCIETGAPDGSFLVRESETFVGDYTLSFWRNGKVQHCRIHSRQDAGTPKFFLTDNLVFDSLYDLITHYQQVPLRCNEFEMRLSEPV

[10] = molecular target: T10, STAP1 (Homo sapiens, UniProt Q9ULZ2); settings: read-out: percent of DMSO vehicle control
T10 construct: made in house; host or cells: HEK293 (transient transfection), unpurified extract
T10 sequence (Q9ULZ2 1-295): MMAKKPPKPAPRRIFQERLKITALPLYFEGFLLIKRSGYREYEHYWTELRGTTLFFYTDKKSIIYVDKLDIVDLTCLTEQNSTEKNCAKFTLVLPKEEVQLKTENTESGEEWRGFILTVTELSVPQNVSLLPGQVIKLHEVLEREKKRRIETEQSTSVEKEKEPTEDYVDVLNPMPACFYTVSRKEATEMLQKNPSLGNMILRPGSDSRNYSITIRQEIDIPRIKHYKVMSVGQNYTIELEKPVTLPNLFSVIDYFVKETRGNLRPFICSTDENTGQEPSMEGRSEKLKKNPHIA

[11] = molecular target: T11, CRK (Homo sapiens, UniProt P46108); settings: read-out: percent of DMSO vehicle control
T11 construct: the DNA-tagged SH2 domain concentrations used in this study were <0.1 nM; made in house; host or cells: HEK293 (transient transfection; unpurified extract)
T11 sequence (P46108 13-118 limits assumed): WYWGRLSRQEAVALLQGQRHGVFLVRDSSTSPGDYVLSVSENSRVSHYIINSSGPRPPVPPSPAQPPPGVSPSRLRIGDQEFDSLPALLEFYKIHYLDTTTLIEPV

[12] = molecular target: T12, PLCG2(SH2dom.C-term.) (Homo sapiens, UniProt P16885); settings: read-out: percent of DMSO vehicle control
T12 construct: SH2dom.C-term. denotes SH2 domain closest to C-terminus of protein; made in house; host or cells: HEK293 (transient transfection, unpurified extract)
T12 sequence (P16885 646-735 limits assumed): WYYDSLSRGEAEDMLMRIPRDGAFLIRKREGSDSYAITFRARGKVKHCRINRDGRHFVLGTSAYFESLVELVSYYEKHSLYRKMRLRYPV

T1 sequence (P12931 whole entry): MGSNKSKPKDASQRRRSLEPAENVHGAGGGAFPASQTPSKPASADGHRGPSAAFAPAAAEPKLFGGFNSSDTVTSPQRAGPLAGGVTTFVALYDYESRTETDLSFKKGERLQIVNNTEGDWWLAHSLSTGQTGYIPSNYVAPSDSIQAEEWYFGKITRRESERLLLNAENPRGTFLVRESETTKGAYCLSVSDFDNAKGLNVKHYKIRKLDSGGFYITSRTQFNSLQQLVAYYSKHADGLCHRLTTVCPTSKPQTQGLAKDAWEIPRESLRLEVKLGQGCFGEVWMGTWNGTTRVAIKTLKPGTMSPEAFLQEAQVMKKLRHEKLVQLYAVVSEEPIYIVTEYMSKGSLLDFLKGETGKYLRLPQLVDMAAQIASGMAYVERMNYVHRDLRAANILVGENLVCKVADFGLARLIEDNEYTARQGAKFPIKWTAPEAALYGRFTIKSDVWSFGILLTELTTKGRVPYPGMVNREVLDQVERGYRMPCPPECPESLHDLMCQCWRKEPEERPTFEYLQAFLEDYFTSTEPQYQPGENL

SMILES: CC(=O)N1CC[C@H]2CC[C@@H](C(=O)N[C@@H](CCC(N)=O)C(=O)NC(c3ccccc3)c3ccccc3)N2C(=O)[C@@H](NC(=O)c2cc3cc(C(F)(F)P(=O)(O)O)ccc3[nH]2)C1 [SI-109]
- remaining activity at 10 µM [1]: 117%
- remaining activity at 10 µM [2]: 124%
- remaining activity at 10 µM [3]: 118%
- Kd [4]: 1300 ± 1300 nM
- percent of DMSO vehicle control at 10 µM ([4]; read-out: percent of DMSO vehicle control): 100%
- percent of DMSO vehicle control [5]: 121.2%
- remaining activity at 10 µM [6]: 121%
- remaining activity at 10 µM [7]: 112%
- percent of DMSO vehicle control at 10 µM [8]: 135%
- remaining activity at 10 µM [9]: 130%
- remaining activity at 10 µM [10]: 104%
- percent of DMSO vehicle control at 10 µM [11]: 119%
- remaining activity at 10 µM [12]: 98.7 ± 6.9%
